One may read the AC50 as the concentration at which the activity in the assay is half-maximal.

These results are taken from patent publication US20250262201A1, “COMPOUNDS AND METHODS USEFUL FOR STABILIZING PHENYLALANINE HYDROXYLASE MUTATIONS” (Agios Pharmaceuticals, Inc., priority 2022, published 2025).

This test addresses T1, human PAH with the R408W mutation (Homo sapiens, UniProt P00439, R408W).
T1 construct: expressed in transfected cells
T1 sequence (P00439 1-452 R408W): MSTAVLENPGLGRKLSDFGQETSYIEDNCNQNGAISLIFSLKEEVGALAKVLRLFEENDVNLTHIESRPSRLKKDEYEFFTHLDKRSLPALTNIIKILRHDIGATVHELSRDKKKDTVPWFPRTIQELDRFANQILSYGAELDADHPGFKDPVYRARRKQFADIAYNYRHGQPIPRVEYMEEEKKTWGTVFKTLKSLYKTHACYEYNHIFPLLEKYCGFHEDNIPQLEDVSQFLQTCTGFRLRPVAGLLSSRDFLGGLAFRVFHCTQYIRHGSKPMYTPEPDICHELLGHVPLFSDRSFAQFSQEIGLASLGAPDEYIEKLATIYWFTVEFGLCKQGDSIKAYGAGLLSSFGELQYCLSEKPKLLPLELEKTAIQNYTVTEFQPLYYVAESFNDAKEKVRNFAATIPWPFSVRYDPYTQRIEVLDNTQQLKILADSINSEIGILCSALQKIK
Briefly: Cell Based Phenylalanine Flux Assay. As to conditions: A375 cells expressing human R408W PAH; 24 hrs compound incubation; 13C-Tyrosine by LC-MS; average where tested multiple times; read-out: AC50.
As for `C[C@H]1CN(C(=O)c2nnc(-c3ccc(F)cn3)o2)[C@H](c2cc3ccccc3cn2)c2nc[nH]c21` [Example 496, (5-(5-fluoropyridin-2-yl)-1,3,4-oxadiazol-2-yl)((4R,7S)-4-(isoquinolin-3-yl)-7-methyl-6,7-dihydro-1H-imidazo[4,5-c]pyridin-5(4H)-yl)methanone], the AC50 is 1000 to 5000 nM. Under `C[C@H]1CN(C(=O)c2nnc(-c3ccc(F)cn3)o2)[C@@H](c2cc3ccccc3cn2)c2nc[nH]c21` [Example 497, (5-(5-fluoropyridin-2-yl)-1,3,4-oxadiazol-2-yl)((4S,7S)-4-(isoquinolin-3-yl)-7-methyl-6,7-dihydro-1H-imidazo[4,5-c]pyridin-5(4H)-yl)methanone] stands 1000 to 5000 nM. Under `C[C@H]1CN(C(=O)c2nnc(C(C)(C)F)o2)[C@@H](c2cc3ccccc3cn2)c2nc[nH]c21` [Example 498, (5-(2-fluoropropan-2-yl)-1,3,4-oxadiazol-2-yl)((4S,7S)-4-(isoquinolin-3-yl)-7-methyl-6,7-dihydro-1H-imidazo[4,5-c]pyridin-5(4H)-yl)methanone] stands 1000 to 5000 nM; under `C[C@H]1CN(C(=O)c2nnc(C(C)(C)F)o2)[C@H](c2cc3ccccc3cn2)c2nc[nH]c21` [Example 499, (5-(2-fluoropropan-2-yl)-1,3,4-oxadiazol-2-yl)((4R,7S)-4-(isoquinolin-3-yl)-7-methyl-6,7-dihydro-1H-imidazo[4,5-c]pyridin-5(4H)-yl)methanone], 500 to 1000 nM. Under `C[C@@H]1CN(C(=O)c2nnc(C(C)(C)F)o2)[C@H](c2cc3ccccc3cn2)c2nc[nH]c21` [Example 501, (5-(2-fluoropropan-2-yl)-1,3,4-oxadiazol-2-yl)((4R,7R)-4-(isoquinolin-3-yl)-7-methyl-6,7-dihydro-1H-imidazo[4,5-c]pyridin-5(4H)-yl)methanone] stands under 500 nM; under `C[C@H]1CN(C(=O)c2cnco2)[C@H](c2cc3ccccc3cn2)c2nc[nH]c21` [Example 503, ((4R,7S)-4-(isoquinolin-3-yl)-7-methyl-6,7-dihydro-1H-imidazo[4,5-c]pyridin-5(4H)-yl)(oxazol-5-yl)methanone], 500 to 1000 nM. With `C[C@@H]1CN(C(=O)c2cnco2)[C@H](c2cc3ccccc3cn2)c2nc[nH]c21` [Example 505, ((4R,7R)-4-(isoquinolin-3-yl)-7-methyl-6,7-dihydro-1H-imidazo[4,5-c]pyridin-5(4H)-yl)(oxazol-5-yl)methanone], the AC50 was under 500 nM. As for `C[C@H]1CN(C(=O)c2ocnc2C2CC2)[C@H](c2cc3ccccc3cn2)c2nc[nH]c21` [Example 506, (4-cyclopropyloxazol-5-yl)((4R,7S)-4-(isoquinolin-3-yl)-7-methyl-6,7-dihydro-1H-imidazo[4,5-c]pyridin-5(4H)-yl)methanone], the figure is under 500 nM; as for `C[C@H]1CN(C(=O)c2ocnc2C2CC2)[C@@H](c2cc3ccccc3cn2)c2nc[nH]c21` [Example 507, (4-cyclopropyloxazol-5-yl)((4S,7S)-4-(isoquinolin-3-yl)-7-methyl-6,7-dihydro-1H-imidazo[4,5-c]pyridin-5(4H)-yl)methanone], 1000 to 5000 nM; as for `C[C@H]1CN(C(=O)c2nnc(C3CC3)o2)[C@H](c2cc3ccccc3cn2)c2nc[nH]c21` [Example 511, (5-cyclopropyl-1,3,4-oxadiazol-2-yl)((4R,7S)-4-(isoquinolin-3-yl)-7-methyl-6,7-dihydro-1H-imidazo[4,5-c]pyridin-5(4H)-yl)methanone], 500 to 1000 nM. Under `C[C@@H]1CN(C(=O)c2nnc(C3CC3)o2)[C@H](c2cc3ccccc3cn2)c2nc[nH]c21` [Example 513, (5-cyclopropyl-1,3,4-oxadiazol-2-yl)((4R,7R)-4-(isoquinolin-3-yl)-7-methyl-6,7-dihydro-1H-imidazo[4,5-c]pyridin-5(4H)-yl)methanone] stands 500 to 1000 nM. `COc1ccc(-c2nnc(C(=O)N3C[C@H](C)c4[nH]cnc4[C@@H]3c3cc4ccccc4cn3)o2)nc1` [Example 515, ((4S,7S)-4-(isoquinolin-3-yl)-7-methyl-6,7-dihydro-1H-imidazo[4,5-c]pyridin-5(4H)-yl)(5-(5-methoxypyridin-2-yl)-1,3,4-oxadiazol-2-yl)methanone]: the AC50 lay within 1000 to 5000 nM.

In the case of `COc1ccc(-c2nnc(C(=O)N3C[C@H](C)c4[nH]cnc4[C@H]3c3cc4ccccc4cn3)o2)nc1` [Example 516, ((4R,7S)-4-(isoquinolin-3-yl)-7-methyl-6,7-dihydro-1H-imidazo[4,5-c]pyridin-5(4H)-yl)(5-(5-methoxypyridin-2-yl)-1,3,4-oxadiazol-2-yl)methanone], the AC50 was in the range of 500 to 1000 nM. As for `N#Cc1ncoc1C(=O)N1CCc2[nH]cnc2[C@H]1c1cc2ccccc2cn1` [Example 517, (R)-5-(4-(isoquinolin-3-yl)-4,5,6,7-tetrahydro-1H-imidazo[4,5-c]pyridine-5-carbonyl)oxazole-4-carbonitrile], the figure is under 500 nM; as for `Cn1ncnc1C(=O)N1CCc2[nH]cnc2[C@H]1c1cc2ccccc2cn1` [Example 518, [(4R)-4-(3-isoquinolyl)-1,4,6,7-tetrahydroimidazo[4,5-c]pyridin-5-yl]-(2-methyl-1,2,4-triazol-3-yl)methanone], under 500 nM; as for “(R)-(5-(1-methyl-1H-imidazol-4-yl)-1,3-oxadiazol-2- yl)(4-(quinazolin-2-yl)-6,7-dihydro-1H-imidazo[4,5- c]pyridin-5(4H)-yl)methanone [Example 198]”, over 5000 nM.
